Reference: patent US7919680B2, “Nucleic acids encoding anthelmintic agents and plants made therefrom” (Divergence, Inc., priority 2004, dated 2011)

What was measured:
C. elegans [1] = experiment: Nematicidal activity of methyl ester, salt and free fatty acid emulsions vs. C. elegans N2s (Table 3); format: in vivo, Caenorhabditis elegans
Description: Nematicidal Activity of Single Fatty Acid Methyl Ester, Salt and Free Fatty Acid Emulsions Against Caenorhabditis elegans […] and Dauers

C. elegans [2] = experiment: Nematicidal activity of fatty acid methyl ester emulsions against C. elegans (Table 2)
tomato seedlings = experiment: Phytotoxicity evaluation of fatty acid methyl esters on tomato seedlings; format: in vivo; details: for phytotoxic effects on tomato seedlings: 250 μl of 1% emulsion at stem-media interface of two-week seedlings
Protocol: Sterilized tomato seeds were germinated in magenta jars containing Gamborg's agar media. After two weeks of growth, seedlings were treated with 250 μl of 1% fatty acid methyl ester emulsion (nonanoic acid, ricinoleic acid, ricinelaidic acid, oleic acid, or a control emulsion lacking any fatty acid), applied directly to the stem-media interface. Tomato seedlings were scored at various times after application of emulsions.

M. incognita [3] = experiment: Nematicidal activity of fatty acid methyl ester emulsions against root knot nematode J2 larvae (Table 5); format: in vivo; details: 0.1% emulsion; 48 hours incubation, counted about 24 hours after transfer to plates
Protocol: (§1) M. incognita and M. javanica were prepared from tomato roots. The roots were bleached and the debris was separated from the J2 larvae and eggs by filtration followed by sucrose density gradient centrifugation. Eggs were hatched over 4 days at 15° C. and the J2 larvae were collected by passage though a filter, followed by centrifugation.
(§2) Nematodes and emulsions were incubated with shaking at room temperature for 48 hours. The contents of each well were transferred to a small spot on individual NGM plates lacking bacteria. About 24 hours after the transfer to plates, worms on and off the inoculation spot were counted as not viable or viable, respectively. Worms were considered viable if they had crawled away from the inoculation spot, or if they were moving. Worms were considered non-viable if they remained at the inoculation spot.

M. javanica [4] = experiment: as above; format: in vivo; details: 0.1% emulsion; 48 hours incubation, counted about 24 hours after transfer to plates
Protocol: as §1, §2

M. incognita [5] = experiment: Nematicidal activity of fatty acid methyl ester emulsions, nematode spectrum (Table 6); format: in vivo, Meloidogyne incognita; details: M. incognita 2nd stage juveniles, head 24 hr, b171 48 hours
Protocol: (§3) Briefly, the indicated fatty acid emulsions were added to nematodes in wells of a 24-well plate and rapidly mixed by swirling. […] Results shown are mean % values obtained from multiple independent experiments
(§4) The Caenorhabditis elegans were mixed stage populations. Similar effects were seen on several other free-living nematode species. The Parastrongyloides trichosuri (parasite of Australian bushtail possum) were dauer-like infective 3rd stage larva. Similar effects are also seen against free-living stages. The Meloidogyne incognita and Meloidogyne javanica (root knot nematode) were 2nd stage juveniles (dauer-like infective stage). The Heterodera glycines (soybean cyst nematode) were 2nd stage juveniles (dauer-like infective stage). Finally, the Pratylenchus scribneri (corn lesion nematode) were mixed stage populations.

H. glycines = experiment: as above; format: in vivo, Heterodera glycines; details: H. glycines 2nd stage juveniles, head 24 hr, b171 48 hours
Protocol: as §3, §4

P. trichosuri = experiment: as above; format: in vivo, Parastrongyloides trichosuri; details: P. trichosuri infective 3rd stage larva
Protocol: as §3, §4

C. elegans [6] = experiment: as above; format: in vivo, Caenorhabditis elegans; details: C. elegans mixed stage
Protocol: as §3, §4

M. javanica [7] = experiment: as above; format: in vivo, Meloidogyne javanica; details: M. javanica 2nd stage juveniles, head 24 hr, b171 48 hours
Protocol: as §3, §4

P. scribneri = experiment: as above; format: in vivo, Pratylenchus scribneri; details: P. scribneri mixed stage
Protocol: as §3, §4

C. elegans dauers = experiment: Nematicidal activity of methyl ester, salt and free fatty acid emulsions vs. C. elegans dauers (Table 4); format: in vivo, Caenorhabditis elegans
[8] = system: wide spectrum of divergent nematode genera; experiment: Summary of Table 6: free-living, animal parasitic and plant parasitic nematodes; format: in vivo
Protocol: as §3

C. elegans [9] = experiment: Rescue of delta-12 fat2 RNAi feeding phenotype by fatty acid methyl esters; format: in vivo; details: for rescue of the delta-12 fat2 RNAi feeding phenotype: 3 mM added to NGM media
Description: RNAi by feeding: C. elegans can be grown on lawns of E. coli genetically engineered to produce double stranded RNA (dsRNA) designed to inhibit delta-12 fat2 expression. Briefly, E. coli were transformed with a genomic fragment of a portion of the C. elegans fat2 gene sequence, specifically a fragment 651 nucleotides long, containing the entire first exon and terminating just before the conserved intron splice junction between the first exon and first intron. This construct encodes approximately the first 217 amino acids of the C. elegans delta-12 fat2 gene. The 651 nucleotide genomic fragment was cloned into an E. coli expression vector between opposing T7 polymerase promoters. The clone was then transformed into a strain of E. coli that carries an IPTG-inducible T7 polymerase. As a control, E. coli was transformed with a gene encoding the Green Fluorescent Protein (GFP). Feeding RNAi was initiated from C. elegans eggs or from C. elegans L4s. […] The sequence of the fat2 gene is of sufficiently high complexity (i.e., unique) such that the RNAi is not likely to represent cross reactivity with other genes.
The C. elegans delta-12 fatty acid desaturase (FAT-2 protein) converts the mono-unsaturated oleic acid to the di-unsaturated fatty acid linoleic acid. The delta-12 fat2 RNAi prevents expression of the delta-12 fatty acid desaturase, which is predicted to cause a decrease in levels of linoleic acid in the nematode, leading to arrested development and death.

| SMILES | worm death (C. elegans [1]; 0.001% emulsion) | worm death (C. elegans [1]; 0.01% emulsion) | worm death (C. elegans [1]; 0.1% emulsion) | Percentage of Worm Death 1 hr (C. elegans [2]; 0.003% emulsion) | Percentage of Worm Death 6 hr (C. elegans [2]; 0.003% emulsion) | Percentage of Worm Death 24 hr (C. elegans [2]; 0.003% emulsion) | Percentage of Worm Death 1 hr (C. elegans [2]; 0.1% emulsion) | Percentage of Worm Death 6 hr (C. elegans [2]; 0.1% emulsion) | Percentage of Worm Death 24 hr (C. elegans [2]; 0.1% emulsion) | worm death (C. elegans dauers; 0.01% emulsion) | worm death (C. elegans dauers; 0.1% emulsion) | other results |
| --- | --- | --- | --- | --- | --- | --- | --- | --- | --- | --- | --- | --- |
| CCCCCCCCC(=O)OC [Nonanoic (C9-methyl ester), pelargonic acid methyl ester] | 30% | 100% | 100% | 50% | 50% | 50% | 100% | 100% | 100% |  |  | "stun" effect (C. elegans [2]; 0.003% emulsion, many nematodes recover several hours post inoculation): temporarily “stunned”; nematicidal activity (C. elegans [2]; concentration of 0.1%): strongly nematicidal; onset of effect on nematode movement and death (C. elegans [2]; emulsion, Table 2): almost immediate cessation of nematode movement and subsequent death; time to almost entire bleaching and near total collapse (tomato seedlings; 250 μl of 1% emulsion): ≤ 24 h; phytotoxic effects on tomato seedlings (tomato seedlings): obvious phytotoxic effects |
| CCCCCC1OC1C/C=C\CCCCCCCC(=O)OC (stereo in doubt) [Vernolic Acid (C18-methyl ester), vernolic acid methyl ester] |  |  |  | 20% | 20% | 20% | 65% | 65% | 75% |  |  | M. incognita (% not viable) (M. incognita [3]): 100%; M. javanica (% not viable) (M. javanica [4]): 90%; % Worm Death (24 hr) (M. incognita [5]; 0.01% solution): 73%; % Worm Death (24 hr) (M. incognita [5]; 0.1% solution): 98%; % Worm Death (24 hr) (H. glycines; 0.001% solution): 18%; % Worm Death (24 hr) (H. glycines; 0.01% solution): 20%; % Worm Death (24 hr) (H. glycines; 0.1% solution): 30%; % Worm Death (24 hr) (P. trichosuri; 0.01% solution): ~90%; % Worm Death (24 hr) (P. trichosuri; 0.1% solution): ~95%; % Worm Death (24 hr) (C. elegans [6]; 0.001% solution): 30%; % Worm Death (24 hr) (C. elegans [6]; 0.01% solution): 50%; % Worm Death (24 hr) (C. elegans [6]; 0.1% solution): 80%; % Worm Death (24 hr) (M. javanica [7]; 0.01% solution): 60%; % Worm Death (24 hr) (M. javanica [7]; 0.1% solution): 90%; % Worm Death (24 hr) (P. scribneri; 0.01% solution): <20%; % Worm Death (24 hr) (P. scribneri; 0.1% solution): <20% |
| CCCCCC[C@@H](O)C/C=C/CCCCCCCC(=O)OC [Re ME, ricinelaidic acid methyl ester] | 80% | 100% | 100% |  |  |  |  |  |  | 100% | 100% | % Worm Death (24 hr) (M. incognita [5]; 0.001% solution): 97%; % Worm Death (24 hr) (M. incognita [5]; 0.01% solution): ~99%; % Worm Death (24 hr) (M. incognita [5]; 0.1% solution): ~99%; % Worm Death (24 hr) (H. glycines; 0.001% solution): 100%; % Worm Death (24 hr) (H. glycines; 0.01% solution): 100%; % Worm Death (24 hr) (H. glycines; 0.1% solution): 100%; % Worm Death (24 hr) (P. trichosuri; 0.01% solution): 100%; % Worm Death (24 hr) (P. trichosuri; 0.1% solution): 100%; % Worm Death (24 hr) (C. elegans [6]; 0.001% solution): 75%; % Worm Death (24 hr) (C. elegans [6]; 0.01% solution): 100%; % Worm Death (24 hr) (C. elegans [6]; 0.1% solution): 100%; % Worm Death (24 hr) (M. javanica [7]; 0.001% solution): ~60%; % Worm Death (24 hr) (M. javanica [7]; 0.01% solution): 100%; % Worm Death (24 hr) (M. javanica [7]; 0.1% solution): 100%; % Worm Death (24 hr) (P. scribneri; 0.01% solution): ~40%; % Worm Death (24 hr) (P. scribneri; 0.1% solution): ~70%; nematicidal activity ([8]; concentrations of 0.1% and 0.01%): strongly nematicidal; breadth of nematicidal activity ([8]; summary of Table 6): favorable nematicidal activity against a wide spectrum of divergent nematode genera; phytotoxic effects on tomato seedlings (tomato seedlings): low phytotoxicity |
| CCCCCC[C@@H](O)C/C=C/CCCCCCCC(=O)O [Re free acid*, ricinelaidic acid] | 40% | 98% | 100% |  |  |  |  |  |  | 75% | 75% |  |
| CCCCCCCC/C=C\CCCCCCCC(=O)OC [Oleic Acid (C18-methyl ester), oleic acid methyl ester] |  |  |  | 0-5% | 0-5% | 0-5% | 0-5% | 0-5% | 0-5% |  |  | rescue of the delta-12 fat2 RNAi feeding phenotype (C. elegans [9]): does not rescue |
| CCCCCC[C@@H](O)C/C=C/CCCCCCCC(=O)[O-].[Na+] [Sodium Re*, sodium salt of ricinelaidic acid] |  | 100% | 100% |  |  |  |  |  |  |  |  |  |
| CCCCC/C=C\C/C=C\CCCCCCCC(=O)O [L free acid, linoleic acid, reference compound] | <5% | <5% | 10% |  |  |  |  |  |  | 40% | 50% |  |
| CCCCC/C=C\C/C=C\CCCCCCCC(=O)OC [Linoleic Acid (C18-methyl ester), linoleic acid methyl ester] | <5% | <5% | <5% | 0-5% | 0-5% | 0-5% | 0-5% | 0-5% | 0-5% | 20% | 40% | rescue of the delta-12 fat2 RNAi feeding phenotype (C. elegans [9]): partial rescue; P0 phenotype (C. elegans [9]; fat2 RNAi feeding starting with L4 larvae, 3 mM fatty acid methyl ester in NGM media): Reduced egg laying |
| CCCCCC[C@@H](O)C/C=C\CCCCCCCC(=O)[O-].[K+] [Potassium R, potassium salt of ricinoleic acid] | 5% | 15% | 90% |  |  |  |  |  |  | 20% | 75% |  |
